From the Biogen ADME set (Fang et al. 2023) come the findings set out here.

≈ marks a conversion by molar mass, not a printed value.

The conditions of the data set: for aqueous solubility: pH 6.8.

Usually aqueous solubility stands for how much of the substance goes into solution per volume. Low readings indicate little dissolved substance, high ones much dissolved substance. As for `CCONC(=O)c1cncn1-c1ccc(F)cc1`, the MDR1-MDCK efflux ratio was determined as 2.24; the intrinsic clearance, human liver microsomes was ≤ 4.74 mL/min/kg; the intrinsic clearance, rat liver microsomes was ≤ 10.7 mL/min/kg; the aqueous solubility was found to be 48 µg/mL (≈ 193 µM).

Regarding `Cc1ccc(C)c(NC(=O)CN2CCCN(c3ccc(C(F)(F)F)cn3)CC2)c1`, the MDR1-MDCK efflux ratio was determined as 0.959; the intrinsic clearance, human liver microsomes is 447 mL/min/kg; the intrinsic clearance, rat liver microsomes amounted to 1940 mL/min/kg; the aqueous solubility amounted to 11.9 µg/mL (≈ 29.4 µM).

With `Cc1cc(NC(=O)c2ccc(NC3CC3)nc2)[nH]n1`, the intrinsic clearance, human liver microsomes came to 6.42 mL/min/kg and the intrinsic clearance, rat liver microsomes was 15.5 mL/min/kg.

Regarding `Cc1cccnc1CNc1ccc(C#N)cc1F`, the MDR1-MDCK efflux ratio was 0.524; the intrinsic clearance, human liver microsomes was determined as 32.9 mL/min/kg; the intrinsic clearance, rat liver microsomes was 161 mL/min/kg; the aqueous solubility came out at 36 µg/mL (≈ 149 µM).

For `Cc1c(C(=O)Nc2ccc(N3CCC(N4CCOCC4)CC3)c(C#N)c2)cnn1-c1ccc(Cl)cc1`, the MDR1-MDCK efflux ratio is 11.5; the intrinsic clearance, human liver microsomes worked out at 80.7 mL/min/kg; the intrinsic clearance, rat liver microsomes was determined as 294 mL/min/kg.

Take `c1ccc(CO[C@@H]2CCC[C@H]2n2cc(-c3nccs3)nn2)cc1`: the MDR1-MDCK efflux ratio is 0.658; the intrinsic clearance, human liver microsomes was 63.2 mL/min/kg; the intrinsic clearance, rat liver microsomes was 3020 mL/min/kg; the aqueous solubility turned out to be 15.7 µg/mL (≈ 48 µM).

Regarding `CC(C)(C)CCCNC(=O)N1CCN(Cc2ccon2)CC1`, the MDR1-MDCK efflux ratio came out at 1.5; the intrinsic clearance, human liver microsomes was 17.1 mL/min/kg; the intrinsic clearance, rat liver microsomes turned out to be 623 mL/min/kg.

For the molecule `CN1C(N)=N[C@](C)(c2cc(NC(=O)c3ccc(F)cn3)ccc2F)CS1(=O)=O`, the MDR1-MDCK efflux ratio was determined as 93.4; the fraction unbound, human plasma amounted to 0.363; the fraction unbound, rat plasma turned out to be 0.31; the intrinsic clearance, human liver microsomes is ≤ 4.74 mL/min/kg. For the same molecule, the intrinsic clearance, rat liver microsomes was found to be 82.3 mL/min/kg.

For `CCCn1ncc2ccc(C3CCCN(CC(=O)N4CCCC4)C3)nc21` (stereo not drawn), the MDR1-MDCK efflux ratio turned out to be 6.7; the intrinsic clearance, human liver microsomes was 27.6 mL/min/kg; the intrinsic clearance, rat liver microsomes was 289 mL/min/kg; the aqueous solubility was determined as 49.4 µg/mL (≈ 139 µM).

Consider `CN(C(=O)c1cncc(F)c1)c1cccc2ncccc12`, for which the MDR1-MDCK efflux ratio worked out at 2.74; the intrinsic clearance, human liver microsomes was found to be 22.2 mL/min/kg; the intrinsic clearance, rat liver microsomes was 134 mL/min/kg; the aqueous solubility is 61.8 µg/mL (≈ 220 µM).

Take `CC(C)NC(=O)CN(C)c1ccc(Cl)c(C#N)n1`: the intrinsic clearance, human liver microsomes is ≤ 4.74 mL/min/kg and the intrinsic clearance, rat liver microsomes was determined as 87.1 mL/min/kg.

Turning to `O=C(Cc1n[nH]c2ccccc12)N1CCCO1`, the MDR1-MDCK efflux ratio was 0.958; the intrinsic clearance, human liver microsomes is ≤ 4.74 mL/min/kg; the intrinsic clearance, rat liver microsomes was found to be 31.6 mL/min/kg.

Regarding `Cc1ncccc1NC(=O)OC(C)(C)C`, the MDR1-MDCK efflux ratio is 0.755; the intrinsic clearance, human liver microsomes is ≤ 4.74 mL/min/kg; the intrinsic clearance, rat liver microsomes stood at 21.1 mL/min/kg.

`O=c1[nH]nc(CCCN2CCOCC2)n1-c1cccc(Cl)c1`: the MDR1-MDCK efflux ratio was 25.6; the intrinsic clearance, human liver microsomes is ≤ 4.74 mL/min/kg; the intrinsic clearance, rat liver microsomes was 28.1 mL/min/kg; the aqueous solubility stood at 40.4 µg/mL (≈ 125 µM).

As for `Nc1ccc2c(c1)ncn2-c1ccccc1`, the intrinsic clearance, human liver microsomes was found to be 7.59 mL/min/kg and the intrinsic clearance, rat liver microsomes stood at 25.3 mL/min/kg.

For the molecule `Cc1nn(CCC#N)c(C)c1Oc1ccccc1O`, the MDR1-MDCK efflux ratio amounted to 1.57; the intrinsic clearance, human liver microsomes was ≤ 4.74 mL/min/kg; the intrinsic clearance, rat liver microsomes worked out at 112 mL/min/kg; the aqueous solubility was 36.7 µg/mL (≈ 143 µM).

For the molecule `O=C1CN(C(=O)c2ccc(F)cc2)CCN1`, the MDR1-MDCK efflux ratio turned out to be 2.27; the intrinsic clearance, human liver microsomes is ≤ 4.74 mL/min/kg; the intrinsic clearance, rat liver microsomes was ≤ 10.7 mL/min/kg; the aqueous solubility is 47 µg/mL (≈ 212 µM).

As for `C=CC(=O)N1C[C@H](Nc2ncnc3[nH]ccc23)CC[C@@H]1C`, the MDR1-MDCK efflux ratio worked out at 65.6; the fraction unbound, human plasma worked out at 0.673; the fraction unbound, rat plasma is 0.557; the intrinsic clearance, human liver microsomes is ≤ 4.74 mL/min/kg. The molecule further came in with an intrinsic clearance, rat liver microsomes of 27.3 mL/min/kg and an aqueous solubility of 53.7 µg/mL (≈ 188 µM).

Turning to `Cc1cc(-c2nnc3ccc4ccccc4n23)n(C)n1`, the MDR1-MDCK efflux ratio worked out at 1.26; the intrinsic clearance, human liver microsomes is ≤ 4.74 mL/min/kg; the intrinsic clearance, rat liver microsomes stood at 20.3 mL/min/kg; the aqueous solubility came to 17.1 µg/mL (≈ 64.9 µM).

As for `N#Cc1ccc(Cn2cncn2)c(F)c1`, the MDR1-MDCK efflux ratio came out at 0.697; the intrinsic clearance, human liver microsomes is ≤ 4.74 mL/min/kg; the intrinsic clearance, rat liver microsomes was ≤ 10.7 mL/min/kg; the aqueous solubility worked out at 26.5 µg/mL (≈ 131 µM).

On to `CC1(C)CC[C@]2(C(=O)O)CC[C@]3(C)C(C(=O)C=C4[C@@]5(C)C=C(C#N)C(=O)C(C)(C)[C@@H]5CC[C@]43C)C2C1` (stereo partly drawn), for which the aqueous solubility is 63.5 µg/mL (≈ 129 µM).

In turn, `CCc1cc2c(Nc3cnn(CC)c3)ncnc2s1` displayed an intrinsic clearance, human liver microsomes of 40.7 mL/min/kg; an intrinsic clearance, rat liver microsomes of 102 mL/min/kg; an aqueous solubility of 43 µg/mL (≈ 157 µM).

Consider `Nc1nc2ccccc2nc1N1CCCC1`, for which the MDR1-MDCK efflux ratio was determined as 0.533; the intrinsic clearance, human liver microsomes worked out at 232 mL/min/kg; the intrinsic clearance, rat liver microsomes amounted to 337 mL/min/kg; the aqueous solubility came to 29.9 µg/mL (≈ 139 µM).

For `Cc1nn(C)c2ncc(C(=O)Nc3ccc4c(c3)CCO4)cc12`, the MDR1-MDCK efflux ratio turned out to be 0.571; the intrinsic clearance, human liver microsomes was determined as 8.12 mL/min/kg; the intrinsic clearance, rat liver microsomes turned out to be 48.2 mL/min/kg; the aqueous solubility came out at 22.9 µg/mL (≈ 74.3 µM).

Regarding `N#Cc1cccc(CN2CCOC[C@H](Oc3ccccc3)C2)c1`, the MDR1-MDCK efflux ratio turned out to be 0.507; the intrinsic clearance, human liver microsomes was found to be 128 mL/min/kg; the intrinsic clearance, rat liver microsomes was determined as 2020 mL/min/kg; the aqueous solubility was 52.9 µg/mL (≈ 171 µM).

Molecule `Cc1cc(Nc2cc(N3CCN(C)CC3)nc(/C=C/c3ccccc3)n2)n[nH]1` had an aqueous solubility of 0.2 µg/mL (≈ 0.533 µM).

`CC(C)(C)c1noc(COc2ccccc2C#N)n1`: the aqueous solubility came to 40.8 µg/mL (≈ 159 µM).

On to `O=c1[nH]c2ccccc2n1C1CCN(Cc2nc(Cc3ccccc3)no2)CC1`, for which the intrinsic clearance, human liver microsomes was 69.7 mL/min/kg and the intrinsic clearance, rat liver microsomes stood at 857 mL/min/kg.

Take `CN1[C@@H]2CC[C@H]1C[C@H](OC(c1ccccc1)c1ccccc1)C2`: the MDR1-MDCK efflux ratio is 7.37; the fraction unbound, human plasma is 0.128; the fraction unbound, rat plasma amounted to 0.152; the intrinsic clearance, human liver microsomes was 9.86 mL/min/kg. Moreover, the intrinsic clearance, rat liver microsomes turned out to be 1090 mL/min/kg and the aqueous solubility is 52.1 µg/mL (≈ 169 µM).

As to `O=C(c1cccs1)N1C[C@@H]2CCCN(C(=O)c3cccs3)[C@@H]2C1`, the MDR1-MDCK efflux ratio came to 2.37; the intrinsic clearance, human liver microsomes was 5.78 mL/min/kg; the intrinsic clearance, rat liver microsomes was found to be 151 mL/min/kg; the aqueous solubility was found to be 63.1 µg/mL (≈ 182 µM).

On to `CC#CCCNC(=O)c1cccnc1C`, for which the MDR1-MDCK efflux ratio is 0.755; the intrinsic clearance, human liver microsomes was ≤ 4.74 mL/min/kg; the intrinsic clearance, rat liver microsomes worked out at 21.5 mL/min/kg.

In the case of `O=C(NC1CCCC1)c1cc(C2CC2)nc2ccccc12`, the MDR1-MDCK efflux ratio is 0.695; the intrinsic clearance, human liver microsomes amounted to 61.9 mL/min/kg; the intrinsic clearance, rat liver microsomes was determined as 140 mL/min/kg; the aqueous solubility amounted to 18.6 µg/mL (≈ 66.3 µM).

As to `Cc1ccc(-c2nc(CN3CCOCC3)n(Cc3ccc(F)cc3)n2)o1`, the MDR1-MDCK efflux ratio was 4.11; the intrinsic clearance, human liver microsomes turned out to be 98.3 mL/min/kg; the intrinsic clearance, rat liver microsomes turned out to be 1400 mL/min/kg; the aqueous solubility was 28.9 µg/mL (≈ 81.2 µM).

For `CC(C)[C@@H](C(=O)Nc1nc2ccccc2[nH]1)N1Cc2ccccc2C1=O`, the intrinsic clearance, human liver microsomes is ≤ 4.74 mL/min/kg; the intrinsic clearance, rat liver microsomes was found to be 262 mL/min/kg; the aqueous solubility was 11 µg/mL (≈ 31.6 µM).

Turning to `Cc1ncc(C)n2nc([C@@H]3C[C@H]3c3nc4c5cccnc5ccn4c3C)nc12`, the MDR1-MDCK efflux ratio was 1.4; the intrinsic clearance, human liver microsomes came out at 16.1 mL/min/kg; the intrinsic clearance, rat liver microsomes stood at 82.1 mL/min/kg.

In the case of `O=C(Nc1ccn(CC(F)F)n1)NC1CCN(C2CCCC2)CC1`, the MDR1-MDCK efflux ratio is 34.7; the intrinsic clearance, human liver microsomes is ≤ 4.74 mL/min/kg; the intrinsic clearance, rat liver microsomes was ≤ 10.7 mL/min/kg.

On to `CN(C)S(=O)(=O)Nc1ccc(-n2ncc3ccccc32)cc1`, for which the MDR1-MDCK efflux ratio came to 0.562; the intrinsic clearance, human liver microsomes came to 21.5 mL/min/kg; the intrinsic clearance, rat liver microsomes stood at 959 mL/min/kg; the aqueous solubility is 38.9 µg/mL (≈ 123 µM).

Take `Cc1cc(C)cc(C(=O)Nc2c(C#N)cnn2C)c1`: the MDR1-MDCK efflux ratio is 1.1; the intrinsic clearance, human liver microsomes was 27.3 mL/min/kg; the intrinsic clearance, rat liver microsomes was determined as 80.2 mL/min/kg; the aqueous solubility came out at 38.2 µg/mL (≈ 150 µM).

For the molecule `CCc1nc2ccccc2n1CC(=O)N1CCNC(=O)C1`, the MDR1-MDCK efflux ratio amounted to 3.86; the intrinsic clearance, human liver microsomes was ≤ 4.74 mL/min/kg; the intrinsic clearance, rat liver microsomes is ≤ 10.7 mL/min/kg; the aqueous solubility was 50.6 µg/mL (≈ 177 µM).

Regarding `COc1cc2c(cc1OC)[C@@H]1Cc3ccc(OC)c(OC)c3CN1CC2`, the MDR1-MDCK efflux ratio amounted to 0.542; the intrinsic clearance, human liver microsomes came out at 5.78 mL/min/kg; the intrinsic clearance, rat liver microsomes came out at 85.5 mL/min/kg.

As for `COc1cc(C(=O)O)c(N)c(OC)c1OC`, the MDR1-MDCK efflux ratio is 1.69; the intrinsic clearance, human liver microsomes is ≤ 4.74 mL/min/kg; the intrinsic clearance, rat liver microsomes is ≤ 10.7 mL/min/kg; the aqueous solubility was determined as 53.9 µg/mL (≈ 237 µM).

For the molecule `Cc1cc(C)c(C#N)c(N2CCN(CC(=O)Nc3ccccc3Cl)CC2)n1`, the MDR1-MDCK efflux ratio is 0.804; the intrinsic clearance, human liver microsomes came to 125 mL/min/kg; the intrinsic clearance, rat liver microsomes came out at 804 mL/min/kg; the aqueous solubility is 1.09 µg/mL (≈ 2.84 µM).

As for `CC(C)(C)OC(=O)c1ccc(-n2[nH]cc(-n3ccnn3)c2=O)nc1`, the MDR1-MDCK efflux ratio was 1.19; the intrinsic clearance, human liver microsomes was ≤ 4.74 mL/min/kg; the intrinsic clearance, rat liver microsomes is 20.7 mL/min/kg.

As for `O=C(c1ccc(-n2cccn2)nc1)N1CCN(c2ccccc2O)CC1`, the MDR1-MDCK efflux ratio came out at 0.747; the intrinsic clearance, human liver microsomes is 5.81 mL/min/kg; the intrinsic clearance, rat liver microsomes was determined as 127 mL/min/kg; the aqueous solubility was 42.5 µg/mL (≈ 122 µM).
